Source: PubChem BioAssay AID248 (DTP/NCI, 2004)
Where “and” joins values, the source holds several entries; their conditions need not be identical. Equal entries are not always repeated. Inconclusive results and toxic doses are left out. Cut-off read from the data, not from the text of the source: active = T/C of 150% or more; inactive = T/C below 125%.

System: L1210 leukemia ip in BDF1 mice, survival T/C
Test: NCI In Vivo Anticancer Drug Screen. Data for tumor model L1210 Leukemia (intraperitoneal) in B6D2F1 (BDF1) mice
Details: endpoint: mean survival time, higher = longer survival
Summary of the method: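 Read-out is survival time, reported as the treated-group measurement over the vehicle-control measurement.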

[1] = dose: 100.0 mg/kg/injection, schedule: Q01DX009 (ip), vehicle: saline
[2] = dose: 200.0 mg/kg/injection, schedule: Q01DX009 (ip), vehicle: saline
[3] = dose: 400.0 mg/kg/injection, schedule: Q01DX009 (ip), vehicle: saline
[4] = dose: 100.0 mg/kg/injection, schedule: Q04DX003 (ip), vehicle: saline
[5] = dose: 200.0 mg/kg/injection, schedule: Q04DX003 (ip), vehicle: saline
[6] = dose: 400.0 mg/kg/injection, schedule: Q04DX003 (ip), vehicle: saline
[7] = dose: 100.0 mg/kg/injection, schedule: Q01DX009 (ip), vehicle: Klucel (hydroxypropylcellulose) (HPC)
[8] = dose: 200.0 mg/kg/injection, schedule: Q01DX009 (ip), vehicle: Klucel (hydroxypropylcellulose) (HPC)
[9] = dose: 100.0 mg/kg/injection, schedule: Q01DX009 (ip), vehicle: saline with Tween-80
[10] = dose: 100.0 mg/kg/injection, schedule: Q04DX003 (ip), vehicle: saline with Tween-80
[11] = dose: 200.0 mg/kg/injection, schedule: Q01DX009 (ip), vehicle: saline with Tween-80
[12] = dose: 400.0 mg/kg/injection, schedule: Q01DX009 (ip), vehicle: saline with Tween-80
[13] = dose: 400.0 mg/kg/injection, schedule: Q04DX003 (ip), vehicle: saline with Tween-80
[14] = dose: 200.0 mg/kg/injection, schedule: Q04DX003 (ip), vehicle: saline with Tween-80
[15] = dose: 100.0 mg/kg/injection, schedule: Q01DX001 (ip), vehicle: carboxymethylcellulose (CMC)
[16] = dose: 200.0 mg/kg/injection, schedule: Q01DX001 (ip), vehicle: carboxymethylcellulose (CMC)
[17] = dose: 400.0 mg/kg/injection, schedule: Q01DX001 (ip), vehicle: carboxymethylcellulose (CMC)
[18] = dose: 100.0 mg/kg/injection, schedule: Q01DX001 (ip), vehicle: saline
[19] = dose: 200.0 mg/kg/injection, schedule: Q01DX001 (ip), vehicle: saline
[20] = dose: 400.0 mg/kg/injection, schedule: Q01DX001 (ip), vehicle: saline
[21] = dose: 50.0 mg/kg/injection, schedule: Q04DX003 (ip), vehicle: saline

Measured: T/C

CCOC1=C(Br)C=CN(S(=O)(=O)c2ccc(C)cc2)c2ccccc21
inactive: [1] 97 % of control | [2] 94 % of control | [3] 93 % of control

Cn1cnnc1N
inactive: [4] 97 % of control | [5] 101 % of control | [6] 103 % of control

Cc1nc(CCl)no1
inactive: dose: 100.0 mg/kg/injection, schedule: Q04DX002 (ip), vehicle: saline with Tween-80 104 % of control | dose: 200.0 mg/kg/injection, schedule: Q04DX002 (ip), vehicle: saline with Tween-80 95 % of control

COc1ccc(OC)c(NC(=O)Nc2ccc(C(=O)O)cc2)c1
inactive: [7] 109 % of control | [8] 96 % of control | dose: 400.0 mg/kg/injection, schedule: Q01DX009 (ip), vehicle: Klucel (hydroxypropylcellulose) (HPC) 96 % of control

COC(=O)C(CSCSC)NC(=O)/C=C/c1ccc(C)cc1 (stereo not given)
inactive: [9] 102 % of control | [10] 93 % of control | [11] 101 % of control | [12] 91 % of control | [13] 91 % of control

Cc1ccccc1C(c1ccccc1)C(CC(=O)O)CC(=O)O (stereo not given)
inactive: [9] 96 % of control | dose: 100.0 mg/kg/injection, schedule: Q04DX003 (ip), vehicle: other 100 % of control | [11] 95 % of control | dose: 200.0 mg/kg/injection, schedule: Q04DX003 (ip), vehicle: other 103 % of control | [12] 93 % of control | dose: 400.0 mg/kg/injection, schedule: Q04DX003 (ip), vehicle: other 106 % of control

O=[N+]([O-])/C=C/c1c[nH]c2ccccc12
inactive: [10] 92 % of control | [14] 106 % of control | [13] 103 % of control

COc1cc2c(c(OC)c1OC)-c1ccc(SC)c(=O)cc1C(N=C(NC1OCC(OC(C)=O)C(OC(C)=O)C1OC(C)=O)SN(NC(=O)OCc1ccccc1)C(=O)OCc1ccccc1)CC2 (stereo not given)
inactive: dose: 25.0 mg/kg/injection, schedule: Q01DX001 (ip), vehicle: saline with Tween-80 95 % of control | dose: 50.0 mg/kg/injection, schedule: Q01DX001 (ip), vehicle: saline with Tween-80 95 % of control | dose: 100.0 mg/kg/injection, schedule: Q01DX001 (ip), vehicle: saline with Tween-80 100 % of control

CCCCC(O)(C(C)C)C(C)C
inactive: [15] 102 % of control | [16] 98 % of control | [17] 98 % of control

CC(O)COC(C)C (stereo not given)
inactive: [18] 98 % of control | [19] 89 % of control | [20] 96 % of control

O=C1CCC(=O)N1Nc1ccccc1
inactive: dose: 50.0 mg/kg/injection, schedule: Q01DX001 (ip), vehicle: carboxymethylcellulose (CMC) 104 % of control | [15] 96 % of control | [16] 102 % of control | [17] 98 % of control

Cc1ccc(/C=C/C(=O)c2ccc(Cl)cc2)cc1
inactive: [9] 108 % of control | [10] 93 % of control | [11] 94 % of control | [14] 101 % of control | [12] 97 % of control | [13] 91 % of control

CCCCCCCCCCCC(=O)N(C)CC(=O)O
inactive: [18] 96 % of control

CC/C=C(\C)C1(CCC)C(N)=NC(=O)N=C1N
inactive: dose: 75.0 mg/kg/injection, schedule: Q01DX001 (ip), vehicle: carboxymethylcellulose (CMC) 93 % of control | dose: 150.0 mg/kg/injection, schedule: Q01DX001 (ip), vehicle: carboxymethylcellulose (CMC) 91 % of control

CSC(NC(=O)c1ccccc1)C(N)=O (stereo not given)
inactive: dose: 100.0 mg/kg/injection, schedule: Q04DX002 (ip), vehicle: Klucel (hydroxypropylcellulose) (HPC) 101 % of control | dose: 200.0 mg/kg/injection, schedule: Q04DX002 (ip), vehicle: Klucel (hydroxypropylcellulose) (HPC) 109 % of control | dose: 400.0 mg/kg/injection, schedule: Q04DX002 (ip), vehicle: Klucel (hydroxypropylcellulose) (HPC) 97 % of control

CNC1(c2ccccc2)C(=O)CC2CCC1C2 (stereo not given)
inactive: [21] 99 % of control | [18] 105 % of control | [4] 100 % of control | [19] 107 % of control

COC(=O)C1(C)COP(=O)(N2CC2C)OC1 (stereo not given)
inactive: [18] 101 % of control | [19] 101 % of control | [20] 97 % of control

OC(CNc1ccnc2cc(Cl)ccc12)CNC1CCCCC1 (stereo not given)
inactive: dose: 75.0 mg/kg/injection, schedule: Q01DX001 (ip), vehicle: other 97 % of control

CC(=O)Nc1snc(C)c1[N+](=O)[O-]
inactive: [18] 107 % of control | [19] 103 % of control | [20] 103 % of control

O=C1NC(=O)C(CO)(CO)N1
inactive: dose: 12.5 mg/kg/injection, schedule: Q04DX003 (ip), vehicle: saline 110 % of control | dose: 25.0 mg/kg/injection, schedule: Q04DX003 (ip), vehicle: saline 97 % of control | [21] 100 % of control | [1] 110 % of control | [4] 121 % of control | [2] 107 % of control | [5] 103 % of control | [3] 113 % of control | [6] 105 % of control

CCCCCCCCCCCC[n+]1ccc2ccccc2c1
inactive: dose: 0.05 mg/kg/injection, schedule: Q01DX001 (ip), vehicle: saline 97 % of control | dose: 0.1 mg/kg/injection, schedule: Q01DX001 (ip), vehicle: saline 105 % of control | dose: 0.2 mg/kg/injection, schedule: Q01DX001 (ip), vehicle: saline 100 % of control | dose: 0.4 mg/kg/injection, schedule: Q01DX001 (ip), vehicle: saline 102 % of control | dose: 0.5 mg/kg/injection, schedule: Q01DX001 (ip), vehicle: saline 106 % of control | dose: 0.8 mg/kg/injection, schedule: Q01DX001 (ip), vehicle: saline 100 % of control | dose: 1.0 mg/kg/injection, schedule: Q01DX001 (ip), vehicle: saline 104 % of control | dose: 2.0 mg/kg/injection, schedule: Q01DX001 (ip), vehicle: carboxymethylcellulose (CMC) 109 % of control | dose: 2.0 mg/kg/injection, schedule: Q01DX001 (ip), vehicle: saline 104 % of control | dose: 4.0 mg/kg/injection, schedule: Q01DX001 (ip), vehicle: carboxymethylcellulose (CMC) 96 % of control and 97 % of control | dose: 4.0 mg/kg/injection, schedule: Q01DX001 (ip), vehicle: saline 103 % of control | dose: 8.0 mg/kg/injection, schedule: Q01DX001 (ip), vehicle: carboxymethylcellulose (CMC) 90 % of control and 91 % of control | dose: 8.0 mg/kg/injection, schedule: Q01DX001 (ip), vehicle: saline 96 % of control | dose: 16.0 mg/kg/injection, schedule: Q01DX001 (ip), vehicle: carboxymethylcellulose (CMC) 102 % of control | dose: 8.0 micrograms/kg/injection, schedule: Q01DX015 (ip), vehicle: saline 88 % of control | dose: 16.0 micrograms/kg/injection, schedule: Q01DX015 (ip), vehicle: saline 92 % of control | dose: 32.0 micrograms/kg/injection, schedule: Q01DX015 (ip), vehicle: saline 96 % of control | dose: 64.0 micrograms/kg/injection, schedule: Q01DX015 (ip), vehicle: saline 91 % of control

O=C1Cc2ccccc2CN1
inactive: dose: 75.0 mg/kg/injection, schedule: Q01DX001 (ip), vehicle: acetone 100 % of control | dose: 150.0 mg/kg/injection, schedule: Q01DX001 (ip), vehicle: acetone 97 % of control

C#CC(C)(C)NC(=O)NC(C)(C)C
inactive: dose: 100.0 mg/kg/injection, schedule: Q04DX002 (ip), vehicle: gum acacia 112 % of control | dose: 200.0 mg/kg/injection, schedule: Q04DX002 (ip), vehicle: gum acacia 91 % of control | dose: 400.0 mg/kg/injection, schedule: Q04DX002 (ip), vehicle: gum acacia 102 % of control

NC(=O)C1C(=O)OC2(CC2)C1c1ccccc1 (stereo not given)
inactive: [18] 86 % of control | [19] 93 % of control

c1coc(CCc2nc3ccccc3[nH]2)c1
inactive: dose: 50.0 mg/kg/injection, schedule: Q01DX009 (ip), vehicle: Klucel (hydroxypropylcellulose) (HPC) 121 % of control | [7] 116 % of control | dose: 100.0 mg/kg/injection, schedule: Q04DX003 (ip), vehicle: Klucel (hydroxypropylcellulose) (HPC) 96 % of control | [8] 100 % of control | dose: 200.0 mg/kg/injection, schedule: Q04DX003 (ip), vehicle: Klucel (hydroxypropylcellulose) (HPC) 100 % of control
